We go through 15 compounds from patent US5847108A, “Clathrate of isoflavone derivatives and edible composition comprising the same” (Fujicco Co., Ltd., priority 1996, dated 1998).

The test system of data set [1] is postmenopausal osteoporosis model (femur). As to the kind of experiment: Bone density of femur in postmenopausal osteoporosis model (ovariectomized rats, calcium deficient diet). The class given is in vivo, Sprague-Dawley rats. As to conditions: ovariectomized rat femur, oral, 28 days; Means ± S.D.; a: vs nonclathrated, b: vs control (1%). The protocol:
(§1) To obtain postmenopausal osteoporosis model, eighty-day-old Sprague-Dawley rats, on day 10 after ovariectomy, was grown for 28 days feeding with calcium deficient diet (Ca: 0.004%, P: 0.3%), with one group consisting of 5 to 6 rats. During the time the rats were growing, an isoflavone derivative, or a β-cyclodextrin clathrate thereof (see Table 3), was administered orally in the form of a solution or a suspension in 1% aqueous hydroxypropylcellulose. On the day before the final administration, urine was collected for 24 hours. Blood was collected from postcava at 4 hours after the final administration, and a femur was removed. The collected blood was separated to obtain serum according to a standard method. In order to determine the amounts of isoflavone derivatives in the obtained samples of urine and serum, the samples were subjected to the reactions for 2 hours at 37° C. through adding thereto 50 Units/ml of sulfatase (EC3.1.6.1; SIGMA CHEMICAL Co. LTD.) in 1 ml of acetate buffer (0.1M, pH 4.5). Then 1 ml of acetate buffer (0.1M, pH 4.5) containing β-glucuronidase (200 Units/ml, EC 3.2.1.31, WAKO JYUNYAKU KOGYO KABUSIKI KAISYA) was added to the mixture and incubated for 2 hours at 37° C. After treating it with Sep-Pak (Waters), the incubated solution was analyzed using HPLC as described in the above clathrate formation test. Concentration of each isoflavone derivatives in the sample was determined based on the values for daidzein, genistein, or glycitein as a standard. Bone density of femur was calculated based on wet weight and volume measured by pycnometer.

Data set [2] is described as follows: 24 h urinary excretion of isoflavone derivatives after oral administration to ovariectomized rats. Also on record: species or system Sprague-Dawley rats. As to conditions: in vivo, rat, 24 h urine on day before final administration, Means ± S.D., a: significantly different from nonclathrated (1%), read-out: Urinary Excretion Rate. As for the experimental part:
as §1, with “Then 1 ml of acetate buffer (0.1M, pH 4.5) containing β-glucuronidase (200 Units/ml, EC 3.2.1.31, WAKO JYUNYAKU KOGYO KABUSIKI KAISYA) was added to the mixture and incubated for 2 hours at 37° C.” left out

For data set [3] the following is noted: in words, dietary intake; cited from earlier work.
Data set [4] is described as follows: Serum (blood) level of isoflavone derivatives after oral administration to ovariectomized rats. Also noted: species or system Sprague-Dawley rats. The conditions noted are these: in vivo. The protocol:
as §1

SMILES strings stand for the structures.

`O=c1c(-c2ccc(O)cc2)coc2cc(O[C@@H]3O[C@H](CO)[C@@H](O)[C@H](O)[C@H]3O)ccc12` [daidzin]: the “Bone Density” value in data set [1] was 1.496 ± 0.015 g/mL. For the same compound, the dose excreted at 24 h in data set [2] was found to be 9.3 ± 0.7%. Further, in data set [3], the “urinary excretion in Japanese female relative to female in Boston or Helsinki” value is “ten times greater”. This compound also returned a concentration at 4 h in data set [4] (heading: Blood Level, rat serum, oral, 4 hours after the final administration, Means ± S.D., a: significantly different from nonclathrated (1%)) of 840 ± 30 ng/mL.
As for `O=c1c(-c2ccc(O)cc2)coc2cc(O)cc(O)c12` [genistein], the “Bone Density” value in data set [1] was 1.492 ± 0.012 g/mL. In data set [4] (rat), the concentration at 4 h is 680 ± 30 ng/mL.
Take `O=C(O)CCC(=O)OC[C@H]1O[C@@H](Oc2cc(O)c3c(=O)c(-c4ccc(O)cc4)coc3c2)[C@H](O)[C@@H](O)[C@@H]1O` [6"-O-succinylgenistin]: in data set [1], the “Bone Density” value stood at 1.486 ± 0.028 g/mL. In addition, the concentration at 4 h in data set [4] (rat) worked out at 820 ± 50 ng/mL.
For `COc1cc2c(=O)c(-c3ccc(O)cc3)coc2cc1O[C@@H]1O[C@H](CO)[C@@H](O)[C@H](O)[C@H]1O` [glycitin] the same measures were 1.494 ± 0.015 g/mL and 750 ± 60 ng/mL.
For `O=c1c(-c2ccc(O)cc2)coc2cc(O)ccc12` [daidzein], in that order: 1.489 ± 0.013 g/mL and 650 ± 40 ng/mL.
For `CC(=O)OC[C@H]1O[C@@H](Oc2ccc3c(=O)c(-c4ccc(O)cc4)coc3c2)[C@H](O)[C@@H](O)[C@@H]1O` [6"-O-acetyldaidzin] the same measures were 1.492 ± 0.014 g/mL and 740 ± 50 ng/mL.
Take `O=C(O)CCC(=O)OC[C@H]1O[C@@H](Oc2ccc3c(=O)c(-c4ccc(O)cc4)coc3c2)[C@H](O)[C@@H](O)[C@@H]1O` [6"-O-succinyldaidzin]: in data set [1], the “Bone Density” value is 1.490 ± 0.030 g/mL. Besides, the concentration at 4 h in data set [4] (rat) was 860 ± 30 ng/mL.
For `O=C(O)CC(=O)OC[C@H]1O[C@@H](Oc2ccc3c(=O)c(-c4ccc(O)cc4)coc3c2)[C@H](O)[C@@H](O)[C@@H]1O` [6"-O-malonyldaidzin] the same measures were 1.488 ± 0.012 g/mL and 850 ± 50 ng/mL.
For `COc1cc2c(=O)c(-c3ccc(O)cc3)coc2cc1O[C@@H]1O[C@H](COC(=O)CC(=O)O)[C@@H](O)[C@H](O)[C@H]1O` [6"-O-malonylglycitin] the same measures were 1.489 ± 0.012 g/mL and 780 ± 50 ng/mL.
For `COc1cc2c(=O)c(-c3ccc(O)cc3)coc2cc1O[C@@H]1O[C@H](COC(=O)CCC(=O)O)[C@@H](O)[C@H](O)[C@H]1O` [6"-O-succinylglycitin], in that order: 1.477 ± 0.032 g/mL and 790 ± 30 ng/mL.
As for `COc1cc2c(=O)c(-c3ccc(O)cc3)coc2cc1O[C@@H]1O[C@H](COC(C)=O)[C@@H](O)[C@H](O)[C@H]1O` [6"-O-acetylglycitin], the “Bone Density” value in data set [1] stood at 1.489 ± 0.012 g/mL. Further, in data set [4] (rat), the concentration at 4 h amounted to 720 ± 60 ng/mL.
For `O=C(O)CC(=O)OC[C@H]1O[C@@H](Oc2cc(O)c3c(=O)c(-c4ccc(O)cc4)coc3c2)[C@H](O)[C@@H](O)[C@@H]1O` [6"-O-malonylgenistin] the same measures were 1.494 ± 0.013 g/mL and 840 ± 40 ng/mL.
For `O=c1c(-c2ccc(O)cc2)coc2cc(O[C@@H]3O[C@H](CO)[C@@H](O)[C@H](O)[C@H]3O)cc(O)c12` [genistin] the same measures were 1.502 ± 0.007 g/mL and 780 ± 40 ng/mL.
As to `COc1cc2c(=O)c(-c3ccc(O)cc3)coc2cc1O` [glycitein], the “Bone Density” value in data set [1] was found to be 1.493 ± 0.013 g/mL. Also, the concentration at 4 h in data set [4] (rat) worked out at 630 ± 50 ng/mL.
For the compound `CC(=O)OC[C@H]1O[C@@H](Oc2cc(O)c3c(=O)c(-c4ccc(O)cc4)coc3c2)[C@H](O)[C@@H](O)[C@@H]1O` [6"-O-acetylgenistin], the “Bone Density” value in data set [1] was 1.494 ± 0.028 g/mL. The same compound displayed a concentration at 4 h in data set [4] (rat) of 780 ± 70 ng/mL.
